In patent US20250249001A1, “METHODS OF TREATING SUBSTANCE USE DISORDER WITH 4-(3-CYANOPHENYL)-6-PYRIDINYLPYRIMIDINE MGLU5 NEGATIVE ALLOSTERIC MODULATORS” (Tempero Bio, Inc., priority 2022, published 2025):

Experiments:
[1] = test system: voluntary home-cage alcohol drinking by Wistar rats; experiment: Home-cage two-bottle choice alcohol drinking, acute treatment; assay type: in vivo; details: each drug 3 mg/kg i.p. acute
Method: Animals: Male Wistar rats (Charles River Laboratories, INC) were used in these studies. Rat housing and testing was conducted at the University of North Carolina at Chapel Hill (UNC-CH) School of Medicine in a state-of-the-art rodent vivarium approved by the Association for Assessment and Accreditation of Laboratory Animal Care International (AAALAC). Rat health was monitored daily by study investigators and veterinarians in the Division of Comparative Medicine UNC. All experimental procedures were carried out in accordance with the NIH Guide to Care and Use of Laboratory Animals (Committee for the Update of the Guide for the Care and Use of Laboratory Animals, 2011) and institutional guidelines.
Rats were housed individually in standard Plexiglas cages with standard rodent food and water available ad libitum. Upon arrival from the vendor, rats were given 7 days to acclimate to the vivarium during which they were weighed and handled by an investigator each day to monitor general health and habituate them to human contact. Rats were then weighed each day within 1-h of experimental procedures to calculate drug dosages relative to body weight. […] The colony was maintained at […] on a 12-hour light/dark cycle, with the lights on from 10 AM-10 PM. All behavioral experiments were conducted during the light portion of the light cycle.
Home-cage alcohol drinking method. Oral alcohol and water intake were examined using a two-bottle choice protocol, which is standard in the field and commonly used in our laboratory. Male Wistar rats (n=12) were first adapted to drinking from a 50 ml conical tube fitted with a standard stainless-steel ball bearing sipper tube that limits spillage. Then, two bottles were place on the cage daily. One bottle contained an alcohol solution and the other contained water. Bottles containing fresh solutions were weighed daily before and after a 24 hr access period. After drug treatment, bottles were weighed after 1 hr and 24 hrs of access. Each week, rats had 4-5 days of sweetened alcohol and water available and the remaining days only water.
Briefly, rats were first exposed to alcohol (10% v/v)+sucrose (5% w/v). versus water in the two bottles. Then, over a period of 6-weeks, the concentrations of alcohol and sucrose were gradually adjusted to alcohol (8% v/v)+sucrose (2% w/v) to achieve intake of pharmacologically relevant doses of alcohol. Rats were maintained at this concentration for the duration of the experiment for both acute (3.1.a) and chronic (3.1.b) home-cage drinking studies. Use of sweetened alcohol solutions in preclinical research provides face validity to the binge-intoxication stage of alcohol addiction in humans where sweeteners are commonly added to alcohol.
Compound 1 treatment. After establishing baseline intake of sweetened alcohol and water, rats were habituated to i.p. injections. All rats (N=12) were administered 3 habituation injections of vehicle (10% w/v kolliphor in BCD (10%)) prior to the Compound 1 dose response curve and alcohol intake was measured. Then, the Compound 1 dose response curve was conducted with dose order randomized according to a modified Latin-Square design. Rats were given a minimum of 1-2 days between injections to ensure normal drinking was re-established in absence of drug administration. Each dose of Compound 1 (0-10 mg/kg) was administered via i.p. injection and rats were placed back in the home-cage for 1 hr prior to the return of sweetened alcohol and water. Alcohol intake was measured after 1-h and 24-hrs of access in grams by weighing the drinking bottles. Data were excluded from 1 rat that emptied both bottles fully each day without drinking the solutions; thus, results are presented for a final group of N=11 rats.
Efficacy comparisons to MPEP and Naltrexone. […]

[2] = test system: cue-induced reinstatement of alcohol-seeking behavior in Wistar rats; details: earlier work of the authors; cited from earlier work
[3] = test system: cocaine reinstatement in rats; experiment: Yohimbine-induced reinstatement of cocaine self-administration (Stage II); assay type: in vivo, Sprague-Dawley rats
Method: After completion of Stage I, the rats were re-trained with cocaine for one week to ensure stable baseline. And then the rats underwent a 6-day extinction training procedure in which only saline infusion occurred when active lever was pressed. Meanwhile, the rats were divided into 3 roughly even groups for pharmacological stressor-induced reinstatement—All rats received one injection of alpha-2 adrenergic antagonist yohimbine (2 mg/kg) and then placed into the training box immediately). Thirty min before yohimbine treatment, one group of rats received saline, another group received MTEP 3 mg/kg injection, and the 3rd group received Compound 1 at 3 mg/kg.
Yohimbine-induced reinstatement was re-tested two more times in the same rats 3 days and 6 days after the first test, under continuous extinction procedure (There were 2 more days of extinction training between the 1st and 2nd reinstatement test, and between the 2nd and 3rd reinstatement test). Using the 3×3 within subject design, each given animal goes through all three treatments (saline, MTEP and Compound 1) across the three rounds of test.
(§1) A one-way mixed-effects model (REML) of ANOVA followed by Dunnett's post hoc tests were used to analyze efficacy of Compound 1 and MTEP on cocaine self-administration in stages I (The repeated measure ANOVA was not totally applicable due to a few outlier data points, which are removed), and one-way mixed-effects model (REML) of ANOVA followed by Tukey's post hoc tests were used in Stage II. An effect was considered significant if P<0.05. Data were represented as the mean and standard error to the mean (s.e.m).
Statistical outliers which exceeded mean +/− (2× standard deviation) of the group were removed from the analysis. Also, for reinstatement, the extinction time was shortened (from 9 days plus extension as option to 6 days). In the present study, 3 rounds of reinstatement tests were performed, and we wished to maintain the reinstatement power, thus we cut extinction duration. Accordingly, we loosened the extinction criterion from 6 or less infusions to 9 or less infusions during the last extinction session. With this criterion, 17 out of 21 rats were eligible in drug test in Stage II.

[4] = test system: oxycodone reinstatement in rats; experiment: Yohimbine-induced reinstatement of oxycodone self-administration; assay type: in vivo, Sprague-Dawley rats; details: yohimbine 2 mg/kg; P<0.001
Method: Evaluation of Compound 1 on Oxycodone Reinstatement. After completion of testing rats were re-trained with oxycodone for one week to ensure stable baseline. Rats then underwent a 6-day extinction where only saline infusion occurred when active lever was pressed. Meanwhile, the rats were divided into 3 groups: All rats received one injection of alpha-2 adrenergic antagonist yohimbine (2 mg/kg) with 0 min pretreatment (rats were placed into the training box immediately). Thirty minutes before yohimbine treatment, one group of rats received saline, another group received MTEP 3 mg/kg injection, and the 3rd group received Compound 1 (3 mg/kg). Yohimbine-induced reinstatement was re-tested two more times in the same rats 3 days and 6 days after the first test, under continuous extinction procedure.
as §1, with “Statistical Analysis. Prism 9.40 software package Version 9 was used for statistical analysis and graphing. The number of active lever responses were recorded during each session and compared between treatment groups. A one-way” for “A one-way”, “MTEP on oxycodone self-administration in” for “MTEP on cocaine self-administration in”, “mean (s.e.m). Statistical outliers which exceeded mean +/− (2× standard deviation) of the group were removed from the analysis.” for “mean (s.e.m).”

[5] = yohimbine 2 mg/kg after saline pretreatment

Structure (SMILES) | alcohol intake at the 24-hr measurement interval, comparison of equivalent doses [1] | alcohol drinking at 1-hr of access vs vehicle control, positive control comparison ([1]; N=11) | cue-induced reinstatement in rats [2] | cocaine reinstatement, Mean Diff., Last Day of Cocaine Retraining vs. Saline - Yohimbine 2 mg/kg [3, 5] | cocaine reinstatement, Mean Diff., Last Day of Extinction vs. Saline - Yohimbine 2 mg/kg [3, 5] | reinstatement of cocaine self-administration after extinction ([3]; yohimbine 2 mg/kg, P<0.001) | reinstatement of oxycodone self-administration relative to extinguished level [4]
Cc1cccc(C#Cc2ccccc2)n1 [MPEP, reference compound] | only Compound 1 (3 mg/kg) maintained efficacy | significantly decreased alcohol drinking | blocks cue-induced reinstatement | – | – | – | –
COC(=O)[C@@H]1[C@H]2C[C@H]3c4[nH]c5ccccc5c4CCN3C[C@@H]2CC[C@@H]1O [Yohimbine, yohimbine] | – | – | – | 6.294 | −14.53 | induced significant reinstatement | induced significant reinstatement
